Key:
[1] = compound: T1, CC(=O)c1c(C)c2cnc(Nc3ccc(N4CCN(CCOCCOCCOCCNC(=O)COc5cccc6c5C(=O)N(C5CCC(=O)NC5=O)C6=O)CC4)cn3)nc2n(C2CCCC2)c1=O [BSJ-03-123]
[2] = compound: Cc1nc(-c2cn3c(n2)-c2ccc(-c4cnn(C(C)(C)C(N)=O)c4)cc2OCC3)n(C(C)C)n1 [Taselisib/GDC0032]
[3] = compound: Cc1cc(Nc2ncc(Cl)c(Nc3ccccc3S(=O)(=O)C(C)C)n2)c(OC(C)C)cc1C1CCNCC1 [Ceritinib/LDK378]
[4] = compound: T2, CCOc1cc2ncc(C#N)c(Nc3ccc(OCc4ccccn4)c(Cl)c3)c2cc1NC(=O)/C=C/CN(C)C [Neratinib/HKI272]
[5] = compound: COc1cccc2c1C(=O)c1c(O)c3c(c(O)c1C2=O)C[C@@](O)(C(=O)CO)C[C@@H]3O[C@H]1C[C@H](N)[C@H](O)[C@H](C)O1 [Doxorubicin]
[6] = compound: T3, CN(C)C/C=C/C(=O)Nc1ccc(C(=O)N2CCC[C@@H](Nc3ncc(Cl)c(-c4c[nH]c5ccccc45)n3)C2)cc1 [THZ531]
[7] = compound: CN(C)C/C=C/C(=O)Nc1ccc(O[C@@H]2CCC[C@@H](Nc3ncc(Cl)c(-c4c[nH]c5ccccc45)n3)C2)cc1 [BSJ-01-175]
[8] = compound: CC(=O)Nc1cccc(-n2c(=O)n(C3CC3)c(=O)c3c(Nc4ccc(I)cc4F)n(C)c(=O)c(C)c32)c1
[9] = compound: Cc1nc(Nc2ncc(C(=O)Nc3c(C)cccc3Cl)s2)cc(N2CCN(CCO)CC2)n1 [Dasatinib]
[10] = compound: CO[C@@H](C)Cn1c(=O)n(C)c2cnc3ccc(-c4cncc(C(C)(C)O)c4)cc3c21
[11] = compound: CNCc1ccc(-c2[nH]c3cc(F)cc4c3c2CCNC4=O)cc1 [Rucaparib]
[12] = compound: CC(C)n1nc(-c2ccc3oc(N)nc3c2)c2c(N)ncnc21 [INK128/MLN0128]
[13] = compound: CNC(=O)c1cccc(-c2ccc3c(N4CCOC[C@@H]4C)nc(N4CCOC[C@@H]4C)nc3n2)c1 [AZD2014]
[14] = compound: O=C(CCCCCCC(=O)Nc1ccccc1)NO [Vorinostat]
[15] = compound: CC[C@@H]1C(=O)N(C)c2cnc(Nc3ccc(C(=O)N[C@H]4CC[C@H](N5CCN(CC6CC6)CC5)CC4)cc3OC)nc2N1C(C)C [Volasertib/BI6727]
[16] = compound: CC(=O)c1c(C)c2cnc(Nc3ccc(N4CCNCC4)cn3)nc2n(C2CCCC2)c1=O
[17] = compound: T1, BSJ-03-123; assay: increase in dead-cell fraction, 72 h; higher = more death;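 note: breast cancer cell lines in 384-well plates, stained with Hoechst plus LIVE/DEAD far red dye and imaged, cells above an LDR intensity threshold counted dead, Hoechst-negative corpses included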
[18] = compound: CCc1cnn2c(NCc3ccc[n+]([O-])c3)cc(N3CCCC[C@H]3CCO)nc12; assay: as above
[19] = compound: CN(C)C/C=C/C(=O)Nc1ccc(C(=O)Nc2cccc(Nc3ncc(Cl)c(-c4c[nH]c5ccccc45)n3)c2)cc1 [THZ1]; assay: as above
[20] = compound: T2, Neratinib/HKI272; assay: as above
[21] = compound: T3, THZ531; assay: as above
[22] = compound: C=CC(=O)Nc1ccc(C(=O)Nc2[nH]nc3c2CN(C(=O)N[C@H](CN(C)C)c2ccccc2)C3(C)C)cc1 [YKL-5-124]; assay: as above
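Throughout, for GR50, 72 h: breast cancer and non-malignant breast epithelial cell lines, Deep Dye Drop or Dye Drop imaging, nine half-log doses, GR normalized to time-zero plates and DMSO-only controls.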

Cell Line: HS578T
- GR50, 72 h [1]: 1.45 µM
- GR50, 72 h [2]: 0.575 µM
- GR50, 72 h [3]: 0.965 µM
- GR50, 72 h [4]: 0.644 µM
- GR50, 72 h [5]: 0.00411 µM
- GR50, 72 h [6]: 0.0496 µM
- GR50, 72 h [7]: 0.0056 µM
- GR50, 72 h [8]: 0.00636 µM
- GR50, 72 h [9]: 0.0386 µM
- GR50, 72 h [10]: < 0.001 µM
- GR50, 72 h [11]: > 10 µM
- GR50, 72 h [12]: 0.00906 µM
- GR50, 72 h [13]: 0.0683 µM
- GR50, 72 h [14]: 0.904 µM
- GR50, 72 h [15]: 0.00257 µM
- GR50, 72 h [16]: 0.156 µM
- increase in dead-cell fraction ([17]; 0.001 µM): 0.0192
- increase in dead-cell fraction ([17]; 0.003162 µM): 0.0459
- increase in dead-cell fraction ([17]; 0.01 µM): 0.0053
- increase in dead-cell fraction ([17]; 0.03162 µM): 0.0194
- increase in dead-cell fraction ([17]; 0.1 µM): 0.0184
- increase in dead-cell fraction ([17]; 0.3162 µM): 0.0238
- increase in dead-cell fraction ([17]; 1 µM): 0.034
- increase in dead-cell fraction ([17]; 3.162 µM): 0.0445
- increase in dead-cell fraction ([17]; 10 µM): 0.267
- increase in dead-cell fraction ([18]; 0.0001 µM): 0.0032
- increase in dead-cell fraction ([18]; 0.0003162 µM): -0.0013
- increase in dead-cell fraction ([18]; 0.001 µM): 0.0026
- increase in dead-cell fraction ([18]; 0.003162 µM): 0.0085
- increase in dead-cell fraction ([18]; 0.01 µM): 0.187
- increase in dead-cell fraction ([18]; 0.03162 µM): 0.415
- increase in dead-cell fraction ([18]; 0.1 µM): 0.441
- increase in dead-cell fraction ([18]; 0.3162 µM): 0.423
- increase in dead-cell fraction ([18]; 1 µM): 0.443
- increase in dead-cell fraction ([19]; 0.0001 µM): -0.0022
- increase in dead-cell fraction ([19]; 0.0003162 µM): 0.0144
- increase in dead-cell fraction ([19]; 0.001 µM): 0.0176
- increase in dead-cell fraction ([19]; 0.003162 µM): -0.0036
- increase in dead-cell fraction ([19]; 0.01 µM): 0
- increase in dead-cell fraction ([19]; 0.03162 µM): 0.11
- increase in dead-cell fraction ([19]; 0.1 µM): 0.174
- increase in dead-cell fraction ([19]; 0.3162 µM): 0.216
- increase in dead-cell fraction ([19]; 1 µM): 0.22
- increase in dead-cell fraction ([20]; 0.0003162 µM): 0.0023
- increase in dead-cell fraction ([20]; 0.001 µM): 0.0036
- increase in dead-cell fraction ([20]; 0.003162 µM): 0.0026
- increase in dead-cell fraction ([20]; 0.01 µM): 0.0046
- increase in dead-cell fraction ([20]; 0.03162 µM): 0.0039
- increase in dead-cell fraction ([20]; 0.1 µM): 0.0039
- increase in dead-cell fraction ([20]; 0.3162 µM): 0.0303
- increase in dead-cell fraction ([20]; 1 µM): 0.061
- increase in dead-cell fraction ([20]; 3.162 µM): 0.5
- increase in dead-cell fraction ([21]; 0.0001 µM): 0.0179
- increase in dead-cell fraction ([21]; 0.0003162 µM): 0.0236
- increase in dead-cell fraction ([21]; 0.001 µM): -0.0057
- increase in dead-cell fraction ([21]; 0.003162 µM): 0.0346
- increase in dead-cell fraction ([21]; 0.01 µM): -0.004
- increase in dead-cell fraction ([21]; 0.03162 µM): 0.0086
- increase in dead-cell fraction ([21]; 0.1 µM): 0.182
- increase in dead-cell fraction ([21]; 0.3162 µM): 0.2
- increase in dead-cell fraction ([21]; 1 µM): 0.283
- increase in dead-cell fraction ([22]; 0.001 µM): 0.0377
- increase in dead-cell fraction ([22]; 0.003162 µM): 0.0487
- increase in dead-cell fraction ([22]; 0.01 µM): 0.0429
- increase in dead-cell fraction ([22]; 0.03162 µM): 0.127
- increase in dead-cell fraction ([22]; 0.1 µM): 0.139
- increase in dead-cell fraction ([22]; 0.3162 µM): 0.155
- increase in dead-cell fraction ([22]; 1 µM): 0.13
- increase in dead-cell fraction ([22]; 3.162 µM): 0.125
- increase in dead-cell fraction ([22]; 10 µM): 0.492
